From patent US8148373B2, “Compounds” (AstraZeneca AB, priority 2008, dated 2012)
Structures can show the parent of a compound that is named as a salt.

Columns and labels:
[1] = biological target: T1, Adrenergic β2 (H292 cells) (Homo sapiens, UniProt P07550); experiment: Assay for Adrenergic β2 Mediated cAMP Production (concentration response, AlphaScreen cAMP detection); format: cell-based; conditions: for EC50: cAMP production, 60 minutes at room temperature, 300 μM rolipram, read-out: β2 pEC50 (converted); for β2 Intrinsic activity: fraction relative to the maximum activity determined for formoterol
T1 construct: endogenous in cells; host or cells: H292 cells
Method in brief: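 Intrinsic activity is relative to the per-experiment formoterol maximum, with pEC50 from a four-parameter logistic fit of cAMP levels quantified by AlphaScreen against standards. Cells (H292) got 300 μM rolipram for 10 min, then compound for 60 min at room temperature, 1% DMSO final.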

[2] = biological target: T2, human muscarinic acetylcholine M3 receptor (M3-ACh) (Homo sapiens, UniProt P20309); experiment: Muscarinic 3 Receptor Binding Assay ([3H]NMS competition, SPA); conditions: [3H]NMS 0.1 nM, CHO-K1 cell membranes, 16 hours at room temperature; read-out: M3 pIC50 (converted)
T2 construct: expressed in transfected cells; host or cells: CHO-K1 (Chinese Hamster Ovary) cell membranes
Method in brief: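 Competition SPA binding of 0.1 nM [3H]NMS (quarter Kd) to membranes from CHO-K1 cells expressing human M3, in 20 mM HEPES pH 7.4, 5 mM MgCl2, 1% DMSO. Incubated 16 h at room temperature; non-specific binding with 1 µM atropine. pIC50 from 50% reduction of specific binding.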

T1 sequence (P07550 whole entry): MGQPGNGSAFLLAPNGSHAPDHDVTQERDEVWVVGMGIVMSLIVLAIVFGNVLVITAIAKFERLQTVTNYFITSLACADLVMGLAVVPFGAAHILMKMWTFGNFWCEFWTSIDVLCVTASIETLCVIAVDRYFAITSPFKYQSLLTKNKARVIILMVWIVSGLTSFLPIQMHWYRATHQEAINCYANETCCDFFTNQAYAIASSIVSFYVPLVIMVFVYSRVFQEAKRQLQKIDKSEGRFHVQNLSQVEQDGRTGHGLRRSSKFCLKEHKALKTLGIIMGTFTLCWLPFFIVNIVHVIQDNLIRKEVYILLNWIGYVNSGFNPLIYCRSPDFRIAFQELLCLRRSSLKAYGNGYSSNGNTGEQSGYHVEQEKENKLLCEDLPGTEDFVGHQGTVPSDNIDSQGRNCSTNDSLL
T2 sequence (P20309 whole entry): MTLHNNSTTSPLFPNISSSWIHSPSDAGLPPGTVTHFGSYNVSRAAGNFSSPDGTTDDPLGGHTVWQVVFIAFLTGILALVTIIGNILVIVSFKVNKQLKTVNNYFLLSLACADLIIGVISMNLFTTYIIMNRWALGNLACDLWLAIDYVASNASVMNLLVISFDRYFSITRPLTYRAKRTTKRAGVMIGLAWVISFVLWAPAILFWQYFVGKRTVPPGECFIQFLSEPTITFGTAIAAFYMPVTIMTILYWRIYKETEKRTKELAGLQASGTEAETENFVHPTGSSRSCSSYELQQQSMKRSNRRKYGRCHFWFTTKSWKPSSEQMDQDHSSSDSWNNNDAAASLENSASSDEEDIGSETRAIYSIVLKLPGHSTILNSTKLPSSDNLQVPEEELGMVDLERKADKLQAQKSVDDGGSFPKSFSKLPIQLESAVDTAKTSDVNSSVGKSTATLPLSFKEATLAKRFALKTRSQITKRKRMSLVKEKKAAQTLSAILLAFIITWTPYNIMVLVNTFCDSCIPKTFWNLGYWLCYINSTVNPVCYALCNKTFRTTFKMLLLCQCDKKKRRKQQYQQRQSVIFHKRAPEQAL

| SMILES | EC50 [1] [nM] | β2 Intrinsic activity [1] | IC50 [2] [nM] |
| --- | --- | --- | --- |
| Cc1ccc(C(=O)N2CC(F)(F)OC3(CCN(Cc4cccc(CCNC[C@H](O)c5ccc(O)c6[nH]c(=O)ccc56)c4)CC3)C2)s1 [Example 37, (R)-5-(2-(3-((2,2-Difluoro-4-(5-methylthiophene-2-carbonyl)-1-oxa-4,9-diazaspiro[5.5]undecan-9-yl)methyl)phenethylamino)-1-hydroxyethyl)-8-hydroxyquinolin-2(1H)-one ditrifluoroacetate] | 3.16 | 0.9 | 3.16 |
| Cc1nc(C(=O)N2CCOC3(CCN(Cc4cccc(CCNCC(O)c5ccc(O)c6c5OCC(=O)N6)c4)CC3)C2)cs1 (single isomer, unassigned; isomer 1) [Example 11, 5-Hydroxy-8-(1-hydroxy-2-(3-((4-(2-methylthiazole-4-carbonyl)-1-oxa-4,9-diazaspiro[5.5]undecan-9-yl)methyl)phenethylamino)ethyl)-2H-benzo[b][1,4]oxazin-3(4H)-one ditrifluoroacetate, Isomer 1] | 1.58 | 0.8 | 0.1 |
| CC(C)c1nc(C(=O)N2CC(F)(F)OC3(CCN(Cc4cc(CCNC[C@H](O)c5ccc(O)c6[nH]c(=O)ccc56)cs4)CC3)C2)cs1 [Example 51, (R)-5-(2-(2-(5-((2,2-Difluoro-4-(2-isopropylthiazole-4-carbonyl)-1-oxa-4,9-diazaspiro[5.5]undecan-9-yl)methyl)thiophen-3-yl)ethylamino)-1-hydroxyethyl)-8-hydroxyquinolin-2(1H)-one ditrifluoroacetate] | 3.16 | 0.9 | 15.8 |
| CC(C)c1nc(C(=O)N2CCOC3(CCN(CCCSCCCCNC[C@H](O)c4ccc(O)c5[nH]c(=O)sc45)CC3)C2)cs1 [Example 281, (R)-4-Hydroxy-7-(1-hydroxy-2-(4-(3-(4-(2-isopropylthiazole-4-carbonyl)-1-oxa-4,9-diazaspiro[5.5]undecan-9-yl)propylthio)butylamino)ethyl)benzo[d]thiazol-2(3H)-one formate] | 31.6 | 0.8 | 1.58 |
| CC(C)c1nc(C(=O)N2CCOC3(CCN(CCC[S+]([O-])CCCCNC[C@H](O)c4ccc(O)c5[nH]c(=O)sc45)CC3)C2)cs1 (stereo partly drawn) [Example 282, 4-Hydroxy-7-((1R)-1-hydroxy-2-(4-(3-(4-(2-isopropylthiazole-4-carbonyl)-1-oxa-4,9-diazaspiro[5.5]undecan-9-yl)propylsulfinyl)butylamino)ethyl)benzo[d]thiazol-2(3H)-one formate] | 50.1 | 1 | 20 |
| CC(C)c1cc(C(=O)N2CCOC3(CCN(Cc4cccc(CC(C)(C)NC[C@H](O)c5ccc(O)c6[nH]c(=O)ccc56)c4)CC3)C2)cs1 [Example 275, (R)-8-Hydroxy-5-(1-hydroxy-2-(1-(3-((4-(5-isopropylthiophene-3-carbonyl)-1-oxa-4,9-diazaspiro[5.5]undecan-9-yl)methyl)phenyl)-2-methylpropan-2-ylamino)ethyl)quinolin-2(1H)-one ditrifluoroacetate] | 50.1 | 1 | 1.58 |
| CC(C)c1cc(C(=O)N2CCOC3(CCN(Cc4cccc(CCNC[C@H](O)c5ccc(O)c6[nH]c(=O)sc56)c4)CC3)C2)cs1 [Example 82, (R)-4-Hydroxy-7-(1-hydroxy-2-(3-((4-(5-isopropylthiophene-3-carbonyl)-1-oxa-4,9-diazaspiro[5.5]undecan-9-yl)methyl)phenethylamino)ethyl)benzo[d]thiazol-2(3H)-one ditrifluoroacetate] | 3.98 | 0.9 | 0.398 |
| Cc1ccc(C(=O)N2CCOC3(CCN(CCc4cccc(CNC[C@H](O)c5ccc(O)c6[nH]c(=O)sc56)c4)CC3)C2)s1 [Example 20, (R)-4-Hydroxy-7-(1-hydroxy-2-(3-(2-(4-(5-methylthiophene-2-carbonyl)-1-oxa-4,9-diazaspiro[5.5]undecan-9-yl)ethyl)benzylamino)ethyl)benzo[d]thiazol-2(3H)-one ditrifluoroacetate] | 200 | 0.8 | 31.6 |
| CC(C)c1nc(C(=O)N2CCOC3(CCN(Cc4cc(CCNC[C@H](O)c5ccc(O)c6[nH]c(=O)sc56)ccc4Cl)CC3)C2)cs1 [Example 61, (R)-7-(2-(4-Chloro-3-((4-(2-isopropylthiazole-4-carbonyl)-1-oxa-4,9-diazaspiro[5.5]undecan-9-yl)methyl)phenethylamino)-1-hydroxyethyl)-4-hydroxybenzo[d]thiazol-2(3H)-one ditrifluoroacetate] | 63.1 | 0.9 | 5.01 |
| CC(C)c1cc(C(=O)N2CCOC3(CCN(Cc4cccc(C[C@@H](C)NC[C@H](O)c5ccc(O)c6[nH]c(=O)ccc56)c4)CC3)C2)cs1 [Example 276, 8-Hydroxy-5-((R)-1-hydroxy-2-((R)-1-(3-((4-(5-isopropylthiophene-3-carbonyl)-1-oxa-4,9-diazaspiro[5.5]undecan-9-yl)methyl)phenyl)propan-2-ylamino)ethyl)quinolin-2(1H)-one ditrifluoroacetate] | 39.8 | 1 | 2 |
| Cc1ccc(C(=O)N2CCOC3(CCN(Cc4cccc(CCNC[C@H](O)c5ccc(O)c6[nH]c(=O)sc56)c4)CC3)C2)s1 [Example 15, (R)-4-Hydroxy-7-(1-hydroxy-2-(3-((4-(5-methylthiophene-2-carbonyl)-1-oxa-4,9-diazaspiro[5.5]undecan-9-yl)methyl)phenethylamino)ethyl)benzo[d]thiazol-2(3H)-one trifluoroacetate] | 2.51 | 0.9 | 1.26 |
| CC(C)c1nc(C(=O)N2CCOC3(CCN(CCCCCC(C)(C)CNC[C@H](O)c4ccc(O)c5[nH]c(=O)sc45)CC3)C2)cs1 [Example 102, (R)-4-Hydroxy-7-(1-hydroxy-2-(7-(4-(2-isopropylthiazole-4-carbonyl)-1-oxa-4,9-diazaspiro[5.5]undecan-9-yl)-2,2-dimethylheptylamino)ethyl)benzo[d]thiazol-2(3H)-one formate] | 200 | 0.9 | 1 |
| Cc1nc(C(=O)N2CCOC3(CCN(Cc4cccc(CNC[C@H](O)c5ccc(O)c6[nH]c(=O)ccc56)c4)CC3)C2)cs1 [Example 96, (R)-8-Hydroxy-5-(1-hydroxy-2-(3-((4-(2-methylthiazole-4-carbonyl)-1-oxa-4,9-diazaspiro[5.5]undecan-9-yl)methyl)benzylamino)ethyl)quinolin-2(1H)-one ditrifluoroacetate] | > 3200 | NV* (inactive up to a max concentration of 3.2 μM of test compound) | 0.251 |
| Cc1nc(C(=O)N2CCOC3(CCN(CCCOc4cccc(CNC[C@H](O)c5ccc(O)c6[nH]c(=O)ccc56)c4)CC3)C2)cs1 [Example 95, (R)-8-Hydroxy-5-(1-hydroxy-2-(3-(3-(4-(2-methylthiazole-4-carbonyl)-1-oxa-4,9-diazaspiro[5.5]undecan-9-yl)propoxy)benzylamino)ethyl)quinolin-2(1H)-one ditrifluoroacetate] | > 3200 | NV* (inactive up to a max concentration of 3.2 μM of test compound) | 1.58 |
| CC(C)c1nc(C(=O)N2CCOC3(CCN(Cc4ccc(C(F)(F)F)c(CCNC[C@H](O)c5ccc(O)c6[nH]c(=O)sc56)c4)CC3)C2)cs1 [Example 270, (R)-4-Hydroxy-7-(1-hydroxy-2-(5-((4-(2-isopropylthiazole-4-carbonyl)-1-oxa-4,9-diazaspiro[5.5]undecan-9-yl)methyl)-2-(trifluoromethyl)phenethylamino)ethyl)benzo[d]thiazol-2(3H)-one ditrifluoroacetate] | 251 | 0.7 | 79.4 |
| CC(C)c1cc(C(=O)N2CCOC3(CCN(Cc4cccc(CCNC[C@H](O)c5ccc(O)c6[nH]c(=O)sc56)c4F)CC3)C2)cs1 [Example 70, (R)-7-(2-(2-Fluoro-3-((4-(5-isopropylthiophene-3-carbonyl)-1-oxa-4,9-diazaspiro[5.5]undecan-9-yl)methyl)phenethylamino)-1-hydroxyethyl)-4-hydroxybenzo[d]thiazol-2(3H)-one ditrifluoroacetate] | 7.94 | 0.8 | 3.16 |
| CC(CCCCCCCN1CCC2(CC1)CN(C(=O)c1csc(C(C)C)n1)CCO2)CNC[C@H](O)c1ccc(O)c2[nH]c(=O)sc12 (stereo partly drawn) [Example 283, 4-Hydroxy-7-((1R)-1-hydroxy-2-(9-(4-(2-isopropylthiazole-4-carbonyl)-1-oxa-4,9-diazaspiro[5.5]undecan-9-yl)-2-methylnonylamino)ethyl)benzo[d]thiazol-2(3H)-one formate] | 79.4 | 1.1 | 1.26 |
| CC(C)c1csc(C(=O)N2CCOC3(CCN(Cc4cccc(CCNC[C@H](O)c5ccc(O)c6[nH]c(=O)sc56)c4F)CC3)C2)c1 [Example 74, (R)-7-(2-(2-Fluoro-3-((4-(4-isopropylthiophene-2-carbonyl)-1-oxa-4,9-diazaspiro[5.5]undecan-9-yl)methyl)phenethylamino)-1-hydroxyethyl)-4-hydroxybenzo[d]thiazol-2(3H)-one ditrifluoroacetate] | 12.6 | 0.9 | 20 |
